Data as given in US10975049B2, “Nicotinyl alcohol ether derivative, preparation method therefor, and pharmaceutical composition and uses thereof” (Institute of Materia Medica, Chinese Academy of Medical …, priority 2016, dated 2021).

Columns and labels:
[1] = system: high metastatic melanoma B16F10; test: Subcutaneous xenograft model of high metastatic melanoma B16F10; type: in vivo, C57BL/6 or Bablc mice; conditions: for TGI % (tumor growth inhibition rate): tumor weight
Protocol: (§1) The method in subcutaneous xenograft tumor was as follows. The cultured specific tumor cells were digested and collected by centrifugation, and washed with sterile physiological saline for two times and then counted. The cell concentration was adjusted to 5×10^6/ml by physiological saline, and 0.2 ml of cell suspension was inoculated to the right armpit of C57BL/6 or Bablc mice. After inoculation, the animals were randomly divided into two groups in next day. Each group had 6-7 mice. After weighing, the animals were dosed once each day to monitor tumor size. When the tumor size reached to a certain size, the mice was weighed and blood was collected from mice orbit and then the mice were killed by removing the neck. The tumor tissue, thymus tissue and spleen tissue were collected and weighed respectively. Finally, the tumor growth inhibition rate was calculated, and the tumor growth inhibition rate was used to evaluate the level of anti-tumor effect.
(§2) In the study of the mechanism of the above models, the method of flow cytometry was adopted in measuring the total cell proportion of T cells of various types. The specific steps were as follows. The samples were treated at first. For blood tissue, the orbital blood was taken. The red cell lysate was used to remove the red blood cells, and then the PBS buffer was used for wash. After being washed, the cells were collected. For the tumor and spleen, the tissues were grinded with a homogenizer, and then diluted with PBS buffer, then filtered by 300 meshes of screen. After the number of cells was counted for each sample, 1×10^6 cells were added into EP tube and stained for flow antibody. After incubation for 1 h on ice, each sample was washed 2 times with PBS buffer. The cell population was analyzed by VERSE flow instrument of BD Company. The total number of cells in tumor tissue was 1×10^5 and the total number of cells in blood and spleen tissues was 1×10^4. The ratio of T cells to total number of cells was analyzed after flow cytometry.

[2] = system: mouse breast cancer EMT6; test: Subcutaneous xenograft model of mouse breast cancer EMT6; type: in vivo, C57BL/6 or Bablc mice
Protocol: as §1

[3] = system: Lewis lung cancer; test: Mouse Lewis lung cancer hydrothorax model; type: in vivo, C57BL/6 mice; conditions: 10 mg
Protocol: The method in Lewis lung cancer hydrothorax model was as follows: The subcutaneous xenograft tumor of Lewis lung cancer was homogenized and washed for two times with sterile physiological saline, and the cell concentration was adjusted to 2.5×10^5/ml by physiological saline. 0.2 ml of cells were injected into the thoracic cavity of C57BL/6 mice. After inoculation, the animals were randomly divided into two groups in next day. Each group had 6-7 mice. After weighing, the animals were dosed once each day. Animals were sacrificed when the weight of the animals in the control group suddenly dropped. The liquid in thoracic cavity was extracted with syringe and the volume of fluid was recorded.

[4] = system: mouse colon cancer MC38; test: Subcutaneous xenograft model of mouse colon cancer MC38; type: in vivo, C57BL/6 or Bablc mice; conditions: result in words
Protocol: as §1

[5] = system: high metastatic melanoma B16F10; test: Lung metastasis model of high metastatic melanoma B16F10; type: in vivo, C57BL/6 mice; conditions: for Tumor number X ± SD: lung; for TGI % (tumor growth inhibition rate): tumor number
Protocol: The method in B16F10 lung metastasis model was as follows. The cultured B16F10 tumor cells were digested and centrifuged and washed for two times with sterile physiological saline and then counted. And the cell concentration was adjusted to 2.5×10^6/ml by physiological saline. 0.2 ml of cells were injected into the C57BL/6 mice through the tail vein, and the tumor cells will gather in the lung of the mice. After inoculation, the animals were randomly divided into two groups in next day. Each group had 6-7 mice. After weighing, the animals were dosed once each day. After 3 weeks, the mice were weighed and killed, the lung tissue was collected and weighed, and the number of lung tumors was counted after being fixed by the Bouin's Fluid. Finally, the tumor growth inhibition rate was calculated, and the tumor growth inhibition rate was used to evaluate the level of anti-tumor effect.
as §2

SMILES: O=C([O-])[C@H](CO)NCc1cc(Cl)c(OCc2cccc(-c3ccccc3)c2Br)cc1OCc1cccnc1.[Na+] [Example 4 sodium salt, (S)-Sodium N-(4-(2-bromo-3-phenylbenzyloxy)-5-chloro-2-(pyridin-3-yl-methyleneoxy)benzyl) serinate]
- Tumorweight(g) X ± SD ([1]; 15 mg/kg): 0.93 ± 0.89 g
- Body weight (g) Mean ± SD Begin ([1]; 15 mg/kg): 20.3 ± 0.4 g
- Body weight (g) Mean ± SD End ([1]; 15 mg/kg): 21.8 ± 2.1 g
- TGI % (tumor growth inhibition rate) ([1]; 15 mg/kg): 64.11%
- Tumorweight(g) X ± SD ([1]; 45 mg/kg): 2.57 ± 0.85 g
- Body weight (g) Mean ± SD Begin ([1]; 45 mg/kg): 20.4 ± 0.9 g
- Body weight (g) Mean ± SD End ([1]; 45 mg/kg): 23.8 ± 1.4 g
- TGI % (tumor growth inhibition rate) ([1]; 45 mg/kg): 0.23%
- proportion of lymphocytes in the spleen samples ([1]; result in words): increase
- proportion of tumor-infiltrating lymphocytes ([1]; result in words): increase
- CD4+ (%) T lymphocytes in spleen ([1]; spleen, 15 mg): 27.0 ± 1.8%
- CD8+ (%) T lymphocytes in spleen ([1]; spleen, 15 mg): 13.6 ± 1.8%
- CD3+ (%) tumor-infiltrating T lymphocytes ([1]; tumor, 15 mg): 13.3 ± 6.9%
- CD4+ (%) tumor-infiltrating T lymphocytes ([1]; tumor, 15 mg): 7.2 ± 3.4%
- CD8+ (%) tumor-infiltrating T lymphocytes ([1]; tumor, 15 mg): 3.9 ± 1.4%
- TGI % (tumor growth inhibition rate) ([2]; 1.5 mg/kg): 13.1%
- Tumorweight(g) X ± SD ([2]; 1.5 mg/kg): 1.5 ± 0.61 g
- Body weight (g) Mean ± SD Begin ([2]; 1.5 mg/kg): 18.4 ± 0.9 g
- Body weight (g) Mean ± SD End ([2]; 1.5 mg/kg): 22.0 ± 1.6 g
- TGI % (tumor growth inhibition rate) ([2]; 5 mg/kg): 20.2%
- Tumorweight(g) X ± SD ([2]; 5 mg/kg): 1.37 ± 0.23 g
- Body weight (g) Mean ± SD Begin ([2]; 5 mg/kg): 18.4 ± 0.4 g
- Body weight (g) Mean ± SD End ([2]; 5 mg/kg): 21.0 ± 1.6 g
- TGI % (tumor growth inhibition rate) ([2]; 10 mg/kg): 22.3%
- Tumorweight(g) X ± SD ([2]; 10 mg/kg): 1.34 ± 0.34 g
- Body weight (g) Mean ± SD Begin ([2]; 10 mg/kg): 18.4 ± 0.6 g
- Body weight (g) Mean ± SD End ([2]; 10 mg/kg): 21.6 ± 1.3 g
- TGI % (tumor growth inhibition rate) ([2]; 15 mg/kg): 14.7%
- Tumorweight(g) X ± SD ([2]; 15 mg/kg): 1.47 ± 0.65 g
- Body weight (g) Mean ± SD Begin ([2]; 15 mg/kg): 18.5 ± 0.4 g
- Body weight (g) Mean ± SD End ([2]; 15 mg/kg): 22.0 ± 1.1 g
- inhibition effect on mouse breast cancer EMT6 ([2]; dose of 10 mg): 20%
- inhibition effect on mouse breast cancer EMT6 ([2]; dose of 15 mg): 22%
- hydrothorax incidence rate [3]: 33%
- hydrothorax volume (mean) [3]: 0.2 mL
- hydrothorax incidence rate ([3]; listed as sodium salt of Example 4 compound): 33%
- antitumor effect in combination with Cyclophosphamide (CTX) [4]: synergistic antitumor effect
- inhibition effect on subcutaneous xenograft of MC38 [4]: significant inhibition effect
- number of lung metastases ([5]; 15 mg/kg dose, result in words): significantly inhibit
- Body weight (g) Mean ± SD Begin ([5]; 15 mg/kg): 20.1 ± 0.9 g
- Body weight (g) Mean ± SD End ([5]; 15 mg/kg): 21.5 ± 1.2 g
- Tumor number X ± SD ([5]; 15 mg/kg): 12 ± 3
- TGI % (tumor growth inhibition rate) ([5]; 15 mg/kg): 42.3%
- Body weight (g) Mean ± SD Begin ([5]; 45 mg/kg): 20.3 ± 0.6 g
- Body weight (g) Mean ± SD End ([5]; 45 mg/kg): 21.4 ± 0.3 g
- Tumor number X ± SD ([5]; 45 mg/kg): 19 ± 15
- TGI % (tumor growth inhibition rate) ([5]; 45 mg/kg): 9.5%
- CD3+ percentage of T lymphocyte in mouse blood ([5]; 15 mg): 29.0 ± 3.7%
- CD4+ percentage of T lymphocyte in mouse blood ([5]; 15 mg): 17.8 ± 2.4%
- CD8+ percentage of T lymphocyte in mouse blood ([5]; 15 mg): 9.6 ± 0.8%
- CD3+ percentage of T lymphocyte in mouse blood ([5]; 45 mg): 23.2 ± 3.6%
- CD4+ percentage of T lymphocyte in mouse blood ([5]; 45 mg): 14.7 ± 2.5%
- CD8+ percentage of T lymphocyte in mouse blood ([5]; 45 mg): 7.6 ± 1.3%
